Measured values: patent US20010009926A1, “Mesozeaxanthin formulations for treatment of retinal disorders” (THE HOWARD FOUNDATION, priority 1993, published 2001)

Key:
Assay type in all cases: in vivo, human
[1] = Serum lutein by HPLC during oral lutein ester supplementation; details: subjects three, equivalent of 30 mg lutein per day as lutein esters in canola oil, within the first week
Method: Serum lutein and zeaxanthin was measured by conventional HPLC.
Two healthy adult males (of age/weight 42 year/60 kg and 51 years/61 kg) ingested the equivalent of 30 mg of lutein per day in the form of lutein esters (source: marigold flowers) suspended in 2 ml of canola oil. This was continued over a period of 138 days and then the dose of lutein was discontinued. Chemical analysis has shown that the product contains approximately 97% lutein—and 3% zeaxanthin. Fasting serum lutein/zeaxanthin levels of both individuals were determined by conventional HPLC on the morning of the first dose as a measure of base line. Blood samples were drawn at 2-3 hour intervals throughout the first day for both subjects and then daily for the next three days. Following the first week of supplementation, blood samples were drawn weekly. Blood was collected into a standard Vacutainer serum separator tube containing no anticoagulant. After allowing about 30 min for coagulation, the sample was centrifuged for 10 minutes and the serum removed by pipette. Serum samples were stored at −20° C. prior to analysis. […] 20 μl of an internal standard, monohexyl lutein ether, containing about 90 ng, was added to the solution at this point for quantification of the caratenoids by HPLC. […]

macular pigment [2] = assay: Macular pigment optical density by heterochromatic flicker photometry during lutein supplementation
Method: A trial was conducted to determine if dietary supplementation with lutein and zeaxanthin effectively can change the pigment levels in the macula. The optical density of the macula pigment was measured for each subject using the method of flicker photometry (Bone and Sparrock 1971; Bone et al 1992). The concentration of pigment in the macula is proportioned to its optical density and the actual amount of pigment was assumed to be proportional to concentration. Thus, optical density was taken as a measure of the total amount of pigment.
Two healthy adult males (of age/weight 42 year/60 kg and 51 years/61 kg) ingested the equivalent of 30 mg of lutein per day in the form of lutein esters (source: marigold flowers) suspended in 2 ml of canola oil. This was continued over a period of 138 days and then the dose of lutein was discontinued. Chemical analysis has shown that the product contains approximately 97% lutein—and 3% zeaxanthin. Fasting serum lutein/zeaxanthin levels of both individuals were determined by conventional HPLC on the morning of the first dose as a measure of base line. Blood samples were drawn at 2-3 hour intervals throughout the first day for both subjects and then daily for the next three days. Following the first week of supplementation, blood samples were drawn weekly. Blood was collected into a standard Vacutainer serum separator tube containing no anticoagulant. After allowing about 30 min for coagulation, the sample was centrifuged for 10 minutes and the serum removed by pipette. Serum samples were stored at −20° C. prior to analysis. Carotenoids ware extracted from the serum by a minor modification of widely used methods (Guiliano et al, 1993; Handelmann et al, 1992), 200 μl aliquots of serum were diluted with 2 mL of 50% ethanol/water to ensure precipitation of protein components. 20 μl of an internal standard, monohexyl lutein ether, containing about 90 ng, was added to the solution at this point for quantification of the caratenoids by HPLC. This solution was extracted 3 times with 2 mL portions of hexane by vortexing the sample for 1 min followed by centrifuging for 5 minutes and pipetting off the hexane layer. The three portions of hexane were dried under a stream of nitrogen gas and stared under nitrogen at −20° C. until analysis was completed.
The optical density of the macular pigment was measured for each subject using the method of heterochomatic flicker photometry (Bone and Sparrock, 1971; Bone et al, 1992). The concentration of pigment in the macula is proportional to its optical density and the actual amount of pigment was assumed to be proportional to concentration. Thus optical density was taken to be a measure of the total amount of pigment.
In the flicker method, a small visual stimulus is presented to the eye which alternates in wavelength between 460 nm, the peak absorbance wavelength of the macular pigment, and 540 nm where pigment absorbance is zero (Bone et al., 1992). Above a certain frequency, color fusion occurs but the stimulus continues to flicker. At a higher frequency, a critical condition can be reached where flicker can be eliminated only if the two wavelength components are matched in luminance. If the stimulus is viewed peripherally, so that the image falls outside the macula, neither wavelength is attenuated by the macular pigment. However, if the stimulus is viewed centrally, the intensity of the 460 nm light must be increased to compensate for absorption by the macular pigment in order to achieve a luminance match. Thus it is possible to determine the optical density of a subject's macular pigment at the peak wavelength, or indeed any other wavelength.
The apparatus consisted of a two-channel Maxwellian view system based on a single light source, a 75 W xenon arc lamp. The wavelengths of the two channels were determined by 460 nm and 540 nm interference filters respectively, having half-widths of 7 and 9 nm. […]

[3] = Skin colour observation during lutein supplementation; details: each subject; after several weeks of administration, 30 mg lutein per day
macular pigment [4] = assay: Macular pigment optical density by heterochromatic flicker photometry during lutein supplementation; details: 30 mg/day lutein ester, increased from 0.3

| Molecule | increase in serum lutein concentration (factor) [1] | day until which optical density continued to rise before plateau (macular pigment [2]; subject four, both eyes, dose discontinued at day 138) [days] | slope of macular pigment optical density (linear least squares fit) (macular pigment [2]; subject four, left eye, day -7 to day 83 of lutein supplementation) | macular pigment optical density, final average (macular pigment [2]; subject four, left eye, initial mean 0.76, p<0.001) | slope of macular pigment optical density (linear least squares fit) (macular pigment [2]; subject four, right eye, day -7 to day 83 of lutein supplementation) | macular pigment optical density, final average (macular pigment [2]; subject four, right eye, initial mean 0.66, p<0.001) | macular pigment optical density, final average (macular pigment [2]; subject three, left eye, average of 15 measurements over 18 days at end of experiment, initial values 0.57 and 0.58, p<0.0005) | slope of macular pigment optical density (linear least squares fit) (macular pigment [2]; subject three, left eye, day -7 to day 72 of lutein supplementation) | macular pigment optical density, final average (macular pigment [2]; subject three, right eye, average of 15 measurements over 18 days at end of experiment, initial values 0.57 and 0.58, p<0.0005) | day until which optical density continued to rise before plateau (macular pigment [2]; subject three, dose of lutein discontinued at day 138) [days] | skin colour of the palms of the hands [3] | macular pigment optical density (macular pigment [4]; subject one, both eyes, after 75 days, then plateau) | macular pigment optical density (macular pigment [4]; subject two, left eye only) |
| --- | --- | --- | --- | --- | --- | --- | --- | --- | --- | --- | --- | --- | --- |
| CC1=C[C@H](O)CC(C)(C)[C@H]1/C=C/C(C)=C/C=C/C(C)=C/C=C/C=C(C)/C=C/C=C(C)/C=C/C1=C(C)C[C@@H](O)CC1(C)C [lutein] | about 10 times | 200 | 3.1×10^−3 absorbance units per week | 0.79 | 2.3×10^−3 absorbance units per week | 0.70 | 0.70 | 15.3×10^−3 absorbance units per week | 0.67 | ~180 | turned a noticeable yellow colour | – | – |
| lutein ester | – | – | – | – | – | – | – | – | – | – | – | 0.5 | 0.5 |
